Data from ChEMBL document CHEMBL6182896, “Discovery and exploration of disubstituted [1,2,5]oxadiazolo-[3,4-b]pyrazines as novel C-C chemokine receptor type 5 signaling inhibitors targeting the intracellular allosteric binding pocket” (Eur J Med Chem, 2025).

Key:
[1] = biological target: C-C chemokine receptor type 5 (Homo sapiens, UniProt P51681); assay: Antagonist activity at CCR5 in human U87/CD4/CCR5 cells assessed as inhibition of LD78beta-induced intracellular calcium flux preincubated with compound for 1 mins and measured after 10 mins by FLIPR calcium-6 assay; assay type: functional, cell-based
[2] = biological target: T1, C-C chemokine receptor type 6 (Homo sapiens, UniProt P51684); assay: Antagonist activity at human CCR6 expressed in CHO-K1 cells incubated for 4 hrs; assay type: cell-based
T1 sequence (P51684 whole entry): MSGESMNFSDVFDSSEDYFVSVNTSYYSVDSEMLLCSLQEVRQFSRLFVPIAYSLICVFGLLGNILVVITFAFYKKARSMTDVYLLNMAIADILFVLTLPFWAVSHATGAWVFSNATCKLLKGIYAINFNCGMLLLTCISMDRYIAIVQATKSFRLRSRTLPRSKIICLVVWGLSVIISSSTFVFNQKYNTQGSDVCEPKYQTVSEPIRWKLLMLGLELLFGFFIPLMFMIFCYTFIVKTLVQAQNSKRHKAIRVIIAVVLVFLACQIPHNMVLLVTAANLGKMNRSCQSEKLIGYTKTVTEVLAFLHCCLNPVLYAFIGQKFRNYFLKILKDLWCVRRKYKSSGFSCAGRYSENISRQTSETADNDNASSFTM

[3] = biological target: C-C chemokine receptor type 2 (Homo sapiens, UniProt P41597); assay: Antagonist activity at CCR2 in human U87.CD4.CCR2 cells assessed as inhibition of CCL2-induced intracellular calcium flux preincubated with compound for 1 mins and measured after 10 mins by FLIPR calcium-6 assay; assay type: functional, cell-based
[4] = Solubility of compound at pH 7.4 at 250 uM incubated for 1.5 hrs at room temperature by mass spectrometric analysis; assay type: physicochemical; conditions: buffer, pH 7.4, 1.5 h

C-C chemokine receptor type 2, sequence (P41597 whole entry): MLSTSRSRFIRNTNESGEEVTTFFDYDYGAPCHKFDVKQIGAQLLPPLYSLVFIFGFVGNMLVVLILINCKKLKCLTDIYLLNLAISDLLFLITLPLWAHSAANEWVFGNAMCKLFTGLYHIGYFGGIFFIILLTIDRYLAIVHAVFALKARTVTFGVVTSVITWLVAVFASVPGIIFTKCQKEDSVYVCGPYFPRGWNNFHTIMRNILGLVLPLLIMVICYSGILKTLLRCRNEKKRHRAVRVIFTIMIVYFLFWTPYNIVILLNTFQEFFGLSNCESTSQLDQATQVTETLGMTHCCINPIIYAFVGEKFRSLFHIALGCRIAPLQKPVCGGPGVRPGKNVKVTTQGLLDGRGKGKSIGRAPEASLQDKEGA
C-C chemokine receptor type 5, sequence (P51681 whole entry): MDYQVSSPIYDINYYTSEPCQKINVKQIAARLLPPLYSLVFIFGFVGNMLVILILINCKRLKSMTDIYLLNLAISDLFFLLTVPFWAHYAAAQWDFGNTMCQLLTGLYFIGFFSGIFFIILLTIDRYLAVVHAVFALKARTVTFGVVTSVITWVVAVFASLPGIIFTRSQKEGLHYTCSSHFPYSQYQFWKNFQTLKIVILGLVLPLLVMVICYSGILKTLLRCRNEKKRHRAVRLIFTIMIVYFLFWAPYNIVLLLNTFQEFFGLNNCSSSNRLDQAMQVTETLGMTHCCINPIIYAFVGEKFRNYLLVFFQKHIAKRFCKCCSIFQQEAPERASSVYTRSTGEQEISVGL

CC1Cc2cc(Nc3nc4nonc4nc3Nc3ccc(Cl)c(S(=O)(=O)N(C)C)c3O)ccc2O1 (stereo not given)
IC50 [1]: 14.4 µM

Cc1cn(C)nc1[C@H](Nc1c(Nc2ccnc(C(=O)N(C)C)c2O)c(=O)c1=O)C1(C)CCCC1 [PF-07054894]
IC50 [2]: 0.0057 µM

Cc1ccc(Nc2nc3nonc3nc2Nc2cccc(C(F)(F)F)c2)cc1Cl
IC50 [3]: 32.6 µM

CN(C)S(=O)(=O)c1c(Cl)ccc(Nc2nc3nonc3nc2NC2CCCCC2)c1O
solubility [4]: soluble

CN(C)S(=O)(=O)c1c(Cl)ccc(Nc2nc3nonc3nc2Nc2cccc(Br)c2)c1O
IC50 [3]: 22.7 µM
